Experimental data taken from patent publication US20220241416A1, “METHODS FOR THE IDENTIFICATION OF SARM1 NADASE ACTIVITY INHIBITORS AND USES THEREOF” (Bar Ilan University, priority 2021, published 2022).
Several values for one entry are separate records, joined by “and”; a condition that tells them apart may be missing. Identical values can stand only once.

Molecular target: T1, hSARM1 (Homo sapiens, UniProt Q6SZW1, E642Q)
T1 construct: short of the N′ terminal mitochondria) localization signal (26ERL . .; 6xHis (N); TEV cleavage site (N); made in house; host or cells: HEK293F suspension cells
T1 sequence (Q6SZW1 with tags, fused parts or gaps E642Q): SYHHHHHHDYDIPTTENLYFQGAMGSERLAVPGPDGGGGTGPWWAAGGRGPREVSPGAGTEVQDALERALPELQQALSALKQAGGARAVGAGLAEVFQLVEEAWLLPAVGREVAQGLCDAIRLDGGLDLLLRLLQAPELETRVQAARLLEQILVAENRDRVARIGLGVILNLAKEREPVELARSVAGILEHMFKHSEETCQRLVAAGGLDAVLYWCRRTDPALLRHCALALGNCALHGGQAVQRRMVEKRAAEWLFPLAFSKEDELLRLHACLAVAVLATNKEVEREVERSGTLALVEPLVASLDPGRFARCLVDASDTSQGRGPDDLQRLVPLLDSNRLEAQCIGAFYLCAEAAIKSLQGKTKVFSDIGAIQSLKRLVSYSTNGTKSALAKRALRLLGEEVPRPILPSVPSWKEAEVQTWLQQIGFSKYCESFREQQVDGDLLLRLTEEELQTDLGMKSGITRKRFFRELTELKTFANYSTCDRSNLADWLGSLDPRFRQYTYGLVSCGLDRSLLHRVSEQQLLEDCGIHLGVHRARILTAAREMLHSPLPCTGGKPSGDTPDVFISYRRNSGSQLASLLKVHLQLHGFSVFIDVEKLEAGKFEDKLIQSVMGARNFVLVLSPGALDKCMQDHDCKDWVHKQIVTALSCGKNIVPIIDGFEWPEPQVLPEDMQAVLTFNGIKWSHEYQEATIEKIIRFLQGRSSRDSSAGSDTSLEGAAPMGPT
Assay: Cryo-EM 2D classification of hSARM1 conformation
Conditions: for effect on hSARM1 conformation: 2D classification / GraFix
Method: FIG. 7B: The structural effects of NAD+ and ATP were observed by cryo-EM based on appearance in 2D classification. Presented are the 10 most populated classes (those with the largest number of particles—numbers in green, 1st class is on the left) out of 50-100 from each data collection after the first round of particle picking and classification. By this analysis, the percentage of particles that present full, two-ring structure is 13% (no NAD+); 74% (5 mM NAD+); and 4% (10 mM ATP).
Cryo-EM grids were prepared by applying 3 μl protein samples to glow-discharged (PELCO easiGlow™ Ted Pella Inc., at 15 mA for 1 minute) holey carbon grids (Quantifoil R 1.2/1.3, Micro Tools GmbH, Germany). The grids were blotted for 4 seconds and vitrified by rapidly plunging into liquid ethane at −182° C. using Leica EM GP plunger (Leica Microsystems, Vienna, Austria). The frozen grids were stored in liquid nitrogen until the day of cryo-EM data collection.
The data presented herein was collected with three separate cryo-electron microscopes: 1) F30 Polara in Ben-Gurion University, Israel was used for all sample preparation optimization. It was also used to collect data sets without and with potential inhibitors (shown in FIG. 1C and the ATP and NMN supplemented classes in FIG. 7B). Samples were imaged under low-dose conditions on a FEI Tecnai F30 Polara microscope (FEI, Eindhoven) operating at 300 kV. Datasets were collected using SerialEM (D. N. Mastronarde, et al. Journal of structural biology 152, 36-51 (2005)) on a K2 Summit direct electron detector fitted behind an energy filter (Gatan Quantum GIF) with a calibrated pixel size of 1.1 Å. The energy filter was set to remove electrons >±10 eV from the zero-loss peak energy. The defocus range was set from −1.0 μm to −2.5 μm. The K2 summit camera was operated in counting mode at a dose rate of 8 electrons/pixel/second on the camera. Each movie was dose fractionated into 50 image frames, with total electron dose of 80ē/Å2. Dose-fractionated image stacks were aligned using MotionCorr2 (X. Li et al., Nature methods 10, 584-590 (2013)), and their defocus values estimated by Gctf (K. Zhang, et al. J Struct Biol 193, 1-12 (2016)). The sum of the aligned frames was used for further processing and the rest of the processing was done in Cryosparc V2 (A. Punjani, J. et al. Nature Methods 14, 290-+(2017)). Particles were auto-picked and subjected to local motion correction to correct for beam-induced drift and then 2D classification with 50 classes. The best (based on shape, number of particles and resolution) classes were manually selected containing 5459 (for hSARM1E642Q) and 43868 (for SAM1-2) particles. 1 initial 3D reference was prepared from all particles and 3D refinement imposing C8 symmetry resulted the final map. […]

| Structure (SMILES) | percentage of particles that present full, two-ring structure (10 mM ATP, 13% without supplement) [%] | effect on hSARM1 conformation | percentage of particles that present full, two-ring structure (5 mM NAD+, 13% or <20% without NAD+) |
| --- | --- | --- | --- |
| Nc1ncnc2c1ncn2[C@@H]1O[C@H](COP(=O)(O)OP(=O)(O)OP(=O)(O)O)[C@@H](O)[C@H]1O [ATP] | 4 | did not affect hSARM1 conformation | – |
| NC(=O)c1ccc[n+]([C@@H]2O[C@H](COP(=O)([O-])OP(=O)(O)OC[C@H]3O[C@@H](n4cnc5c(N)ncnc54)[C@H](O)[C@@H]3O)[C@@H](O)[C@H]2O)c1 [NAD+, Nicotinamide adenine dinucleotide] | – | – | > 80% and 74% |
| OCC(O)CO [glycerol] | – | imposes hSARM1 compact conformation | – |
